The values below are quoted from earlier work in PMC3066546, “Development of modified nucleosides that have supremely high anti-HIV activity and low toxicity and prevent the emergence of resistant HIV mutants” (Proceedings of the Japan Academy. Series B, Physical and …, 2011).

For one data set, the system named is HIV-1LAI. The settings on record: MTT assay, MT-4 cells.
In a further data set the test system is KH65R drug-resistant HIV. More on the design: method as in PMID 11087576, PMID 11577734, PMID 15200030. The settings on record: MAGI assay.
The next data set deals with L74V drug-resistant HIV. Set-up: method as in PMID 11087576, PMID 11577734, PMID 15200030. The settings on record: MAGI assay.
Data set [1] concerns MDR (multidrug-resistant HIV). The following applies: MAGI assay.
The test system of data set [2] is 41/215 drug-resistant HIV. More on the design: method as in PMID 11087576, PMID 11577734, PMID 15200030. The settings on record: MAGI assay.
The next data set relates to M184V drug-resistant HIV. More on the design: method as in PMID 11087576, PMID 11577734, PMID 15200030. The following applies: MAGI assay.
Data set [3] deals with 41/69/ 125/SG drug-resistant HIV. More on the design: method as in PMID 11087576, PMID 11577734, PMID 15200030. The settings on record: MAGI assay.
Another data set concerns HXB2 (wild type HIV). Set-up: method as in PMID 11087576, PMID 11577734, PMID 15200030. The following applies: MAGI assay.
The conditions of data set [4]: cytotoxic concentration, Table 1.
Another data set has as its system M184I drug-resistant HIV. Set-up: method as in PMID 11087576, PMID 11577734, PMID 15200030. The settings on record: MAGI assay.
The subject of the next data set is HIV. More on the design: method as in PMID 7764216. The following applies: Table 1; for EC50: anti-HIV.

Where two headings read alike, the source gives them in different places.

For orientation: CC50 means the concentration giving 50% cytotoxicity. What is called EC50 is the concentration that produces a half-maximal response. Take `Nc1ccn([C@H]2C[C@H](O)[C@](CO)(CF)O2)c(=O)n1` [4′-C-fluoromethyl-2′-deoxycytidine]: the 50% cytotoxic concentration (CC50) with MT-4 cells (Table 2) is 0.12 µM. Further, the EC50 in the data set with HIV-1LAI (Table 2) was 0.0068 µM.

On to `O=c1[nH]cnc2c1ncn2[C@H]1CC[C@@H](CO)O1` [ddI, reference compound], for which the EC50 in the data set with KH65R drug-resistant HIV was 12.7 µM; in the data set with L74V drug-resistant HIV it was 19.5 µM; in data set [1], 25 µM; in data set [2], 3.6 µM; in the data set on M184V drug-resistant HIV, 10.1 µM; in data set [3], 12.2 µM. Also, the half-maximal effective concentration (EC50) in the data set on HXB2 (wild type HIV) was 3.9 µM. For the same compound, in the data set with Hela cells, the cytotoxic concentration (CC50) is greater than 100 µM.

Turning to `C#C[C@]1(CO)O[C@@H](n2cc(C)c(=O)[nH]c2=O)C[C@@H]1O` [4′-C-ethynylthymidine], the CC50 in the data set on MT-4 cells (Table 2) is greater than 400 µM. In the data set with HIV-1LAI (Table 2), the EC50 is 0.83 µM.

In the case of `C[C@]1(CO)O[C@@H](n2ccc(N)nc2=O)C[C@@H]1O` [C00001 Cy, 4′-C-methyl-2′-deoxycytidine], the half-maximal cytotoxic concentration (CC50) in the data set on MT-4 cells (Table 2) is 1 µM; in [4], 0.13 µM; with Hela cells (Table 4, Hela cells), greater than 200 µM. Further, the half-maximal effective concentration (EC50) was 0.0071 µM with KH65R drug-resistant HIV; 0.0062 µM with L74V drug-resistant HIV; 0.0033 µM in [1]; 0.015 µM in the data set with HIV-1LAI (Table 2); 0.2 µM in the data set on M184V drug-resistant HIV; 0.74 µM with M184I drug-resistant HIV. The concentration for a half-maximal effect (EC50) in the data set with HIV is 0.072 µM; with HXB2 (wild type HIV), 0.0058 µM. Besides, the “SI (CC50/EC50)” value in the data set with HIV is on record as 1.8.

As for `N#C[C@]1(CO)O[C@@H](n2cnc3c(O)ncnc32)C[C@@H]1O` [C00004 I], in the data set with MT-4 cells (Table 3), the cytotoxic concentration (CC50) is 23 µM. For the same compound, the concentration for a half-maximal effect (EC50) with HIV-1LAI (Table 3) is 0.051 µM.

In the case of `C[C@@]1(CO)CC[C@H](n2cnc3c(N)ncnc32)O1` [C00003 Ad], the half-maximal cytotoxic concentration (CC50) in data set [4] was 400 µM. For the same compound, in the data set on HIV, the “SI (CC50/EC50)” value was 13 and the EC50 was 30 µM.

`Cc1cn([C@H]2C=C[C@@](C)(CO)O2)c(=O)[nH]c1=O` [C00002 Th]: the CC50 in [4] was 330 µM. In the data set with HIV, the “SI (CC50/EC50)” value is given as 16 and the 50% effective concentration (EC50) was 21 µM.

Consider `[N-]=[N+]=N[C@]1(CO)O[C@@H](n2ccc(N)nc2=O)C[C@@H]1O` [4′-C-azido-2′-deoxycytidine], for which, in the data set with MT-4 cells (Table 2), the CC50 is 0.21 µM. For the same compound, the EC50 in the data set on HIV-1LAI (Table 2) is 0.004 µM.

For the compound `C[C@@]1(CO)C=C[C@H](n2ccc(N)nc2=O)O1` [C00002 Cy], the CC50 in [4] is 350 µM. Also, in the data set with HIV, the EC50 is 350 µM.

Take `[N-]=[N+]=N[C@]1(CO)O[C@@H](n2cnc3c(N)ncnc32)C[C@@H]1O` [4′-C-azido-2′-deoxyadenosine]: the 50% cytotoxic concentration (CC50) in the data set on MT-4 cells (Table 2) is 50 µM. Besides, the half-maximal effective concentration (EC50) in the data set with HIV-1LAI (Table 2) was 0.13 µM.

On to `Cc1cn([C@H]2C[C@H](O)[C@@](C#N)(CO)O2)c(=O)[nH]c1=O` [4′-C-cyanothymidine], for which, in the data set on MT-4 cells (Table 2), the cytotoxic concentration (CC50) was 1 µM. Besides, the concentration for a half-maximal effect (EC50) with HIV-1LAI (Table 2) is 0.002 µM.

Turning to `N#C[C@]1(CO)O[C@@H](n2ccc(N)nc2=O)C[C@@H]1O` [4′-C-cyano-2′-deoxycytidine], the half-maximal cytotoxic concentration (CC50) in the data set with MT-4 cells (Table 2) was 0.17 µM. The EC50 with HIV-1LAI (Table 2) was 0.0012 µM.

Turning to `N#C[C@]1(CO)O[C@@H](n2cnc3c(N)nc(N)nc32)C[C@@H]1O` [C00004 2AA], in the data set on MT-4 cells (Table 3), the cytotoxic concentration (CC50) is 0.034 µM. The EC50 with HIV-1LAI (Table 3) is 0.00079 µM.

On to `Cc1cn([C@H]2C[C@H](O)[C@@](C)(CO)O2)c(=O)[nH]c1=O` [C00001 Th, 4′-C-methylthymidine], for which the cytotoxic concentration (CC50) (in the data set with MT-4 cells (Table 2); in data set [4]) was 104 µM throughout. The concentration giving a half-maximal response (EC50) in the data set with HIV-1LAI (Table 2) and in the data set on HIV was 7.2 µM each time.

As to `C[C@@]1(CO)C=C[C@H](n2cnc3c(N)ncnc32)O1` [C00002 Ad], in [4], the CC50 is greater than 500 µM. For the same compound, in the data set with HIV, the “SI (CC50/EC50)” value was “∼1” and the EC50 is greater than 500 µM.

In the case of `CC[C@]1(CO)O[C@@H](n2cc(C)c(=O)[nH]c2=O)C[C@@H]1O` [4′-C-ethylthymidine], in the data set with HIV-1LAI (Table 2), the EC50 was greater than 400 µM.

On to `N#C[C@]1(CO)O[C@@H](n2cnc3c(N)ncnc32)C[C@@H]1O` [C00004 A], for which, in the data set with MT-4 cells (Table 3), the CC50 was 12 µM. Besides, in the data set on HIV-1LAI (Table 3), the EC50 is 0.051 µM.

As for `Cc1cn([C@H]2CC[C@@](C)(CO)O2)c(=O)[nH]c1=O` [C00003 Th], the 50% cytotoxic concentration (CC50) in data set [4] was greater than 500 µM. In the data set with HIV, the “SI (CC50/EC50)” value is “∼1” and the concentration giving a half-maximal response (EC50) was greater than 500 µM.

Turning to `C[C@@]1(CO)CC[C@H](n2ccc(N)nc2=O)O1` [C00003 Cy], the CC50 in data set [4] is 27 µM. Further, in the data set with HIV, the “SI (CC50/EC50)” value is reported as 1 and the EC50 was 27 µM.

For `CO[C@]1(CO)O[C@@H](n2cc(C)c(=O)[nH]c2=O)C[C@@H]1O` [4′-C-methoxythymidine], in the data set with MT-4 cells (Table 2), the CC50 is 200 µM. Moreover, in the data set with HIV-1LAI (Table 2), the EC50 is 8.49 µM.

Turning to `Cc1cn([C@H]2C[C@H](O)C(CO)(CO)O2)c(=O)[nH]c1=O` [4′-C-hydroxymethylthymidine], in the data set with MT-4 cells (Table 2), the CC50 is greater than 400 µM. For the same compound, the EC50 in the data set on HIV-1LAI (Table 2) was 7 µM.

For `C#C[C@]1(CO)O[C@@H](n2cc(C)c(=O)[nH]c2=O)[C@@H](O)[C@@H]1O` [4′-C-ethynylarabinofuranosylthymine], in the data set with MT-4 cells, the CC50 is greater than 400 µM. Besides, the EC50 in the data set with HIV-1LAI (Table 2) was 119 µM.

Turning to `Nc1ccn([C@H]2CC[C@@H](CO)O2)c(=O)n1` [ddC, reference compound], the concentration giving a half-maximal response (EC50) was 3 µM in the data set on KH65R drug-resistant HIV; 1.5 µM in the data set with L74V drug-resistant HIV; 5.5 µM in data set [1]; 2.2 µM in the data set on M184V drug-resistant HIV; 1.3 µM in data set [3]; 0.2 µM in the data set with HXB2 (wild type HIV). Also, the CC50 with Hela cells was greater than 100 µM.

As to `C[C@]1(CO)O[C@@H](n2cnc3c(N)ncnc32)C[C@@H]1O` [C00001 Ad, 4′-C-methyl-2′-deoxyadenosine], the 50% cytotoxic concentration (CC50) (in the data set with MT-4 cells (Table 2); in data set [4]) was 2.6 µM throughout. Moreover, the EC50 in the data set on HIV-1LAI (Table 2) and with HIV was 2.6 µM in each case. Besides, the “SI (CC50/EC50)” value with HIV is given as 1.0.

For the compound `C#C[C@]1(CO)O[C@@H](n2ccc(N)nc2=O)C[C@@H]1O` [L-4′-C-ethynyl-2′-deoxycytidine], in the data set with HIV-1LAI (Table 2), the EC50 is greater than 400 µM.

Consider `C=C[C@]1(CO)O[C@@H](n2cc(C)c(=O)[nH]c2=O)C[C@@H]1O` [4′-C-vinylthymidine], for which, in the data set with MT-4 cells (Table 2), the 50% cytotoxic concentration (CC50) is greater than 400 µM. In addition, the EC50 in the data set with HIV-1LAI (Table 2) is greater than 400 µM.

Consider `CCC[C@]1(CO)O[C@@H](n2cc(C)c(=O)[nH]c2=O)C[C@@H]1O` [4′-C-propylthymidine], for which the 50% cytotoxic concentration (CC50) in the data set on MT-4 cells (Table 2) is greater than 100 µM. Further, the EC50 in the data set on HIV-1LAI (Table 2) was greater than 100 µM.

`N#C[C@]1(CO)O[C@@H](n2cnc3c(=O)[nH]c(N)nc32)C[C@@H]1O` [C00004 G]: in the data set on MT-4 cells (Table 3), the cytotoxic concentration (CC50) is 0.034 µM. In the data set with HIV-1LAI (Table 3), the concentration for a half-maximal effect (EC50) is 0.000188 µM.

As for `Cc1cn([C@H]2C[C@H](O)[C@](CO)(CN=[N+]=[N-])O2)c(=O)[nH]c1=O` [4′-C-azidomethylthymidine], the CC50 with MT-4 cells (Table 2) was 333 µM. Further, the EC50 with HIV-1LAI (Table 2) is 2.1 µM.

Regarding `Cc1cn([C@H]2C[C@H](O)[C@](CO)(N=[N+]=[N-])O2)c(=O)[nH]c1=O` [4′-C-azidothymidine], the half-maximal cytotoxic concentration (CC50) with MT-4 cells (Table 2) was 8 µM. The 50% effective concentration (EC50) with HIV-1LAI (Table 2) is 0.01 µM.
